Measurements as given in patent US20250059205A1, “Heterocyclic Compounds and Methods of Use” (AMGEN INC., priority 2021, published 2025).

Experiments:
[1] = test system: Phosphorylation of ERK1/2 in AsPC-1 cells; assay: Phospho-ERK1/2 MSD Assay (AsPC-1 cells); format: cell-based; details: Homo sapiens, ASPC1, 2 h, 2 hours treatment, read-out: p-ERK (AsPC-1 cells) IC50
Method in brief: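 Read-out: MSD electrochemiluminescent detection of phosphorylated ERK1/2 in whole-cell lysates, fitted to a 4-parameter logistic curve for IC50. Prior to lysis, AsPC-1 cells (25,000 per well) received a 2 h compound dose-response at 37 °C.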

[2] = target: GDP-bound KRAS protein (aa 1-169), containing both G12D and C118A amino acid substitutions (Homo sapiens, UniProt P01116, C118A/G12D); assay: KRAS G12D Coupled Nucleotide Exchange Assay; format: biochemical; details: 2 h compound pre-incubation
Description: Following compound pre-incubation, purified SOS protein (aa 564-1049) and GTP (Roche 10106399001) were added to the assay wells and incubated for an additional 30 min. […] The assay plates were then read on a PerkinElmer EnVision Multilabel Reader, using AlphaScreen® technology, and data were analyzed using a 4-parameter logistic model to calculate IC50 values.

[3] = target: His-tagged KRAS G12D protein (Homo sapiens, UniProt P01116, G12D); assay: KRAS G12D TR-FRET Assay; format: binding
[4] = test system: Phosphorylation of ERK1/2 in A-427 cells; assay: Phospho-ERK1/2 MSD Assay (A-427 cells); format: cell-based; details: Homo sapiens, A-427, 2 h, 2 h treatment, read-out: p-ERK (A427 cells) IC50
Method in brief: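 ERK1/2 phosphorylation measured by Meso Scale whole-cell lysate assay after A-427 cells were exposed to a titration of compound for 2 h at 37 °C.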

Sequence of GDP-bound KRAS protein (aa 1-169), containing both G12D and C118A amino acid substitutions (P01116 1-169 isoform P01116-2 G12D/C118A): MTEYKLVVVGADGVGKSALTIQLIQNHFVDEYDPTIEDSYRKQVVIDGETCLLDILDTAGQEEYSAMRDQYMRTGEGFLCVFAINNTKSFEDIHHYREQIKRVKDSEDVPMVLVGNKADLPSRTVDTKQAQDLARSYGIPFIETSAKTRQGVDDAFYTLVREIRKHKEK
Sequence of His-tagged KRAS G12D protein (P01116 1-188 isoform P01116-2 G12D): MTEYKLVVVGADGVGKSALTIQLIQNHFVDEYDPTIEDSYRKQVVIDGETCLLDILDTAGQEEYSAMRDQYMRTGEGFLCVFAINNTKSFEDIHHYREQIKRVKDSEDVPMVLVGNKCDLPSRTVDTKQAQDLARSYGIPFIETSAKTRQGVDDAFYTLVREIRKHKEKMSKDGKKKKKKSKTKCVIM

Structure (SMILES) | IC50 [1] | Avg 2 h Coupled Exchange IC50 [2] | IC50 [3] | IC50 [4]
Oc1cc(-c2c(F)cc3c(N4C[C@H]5C[C@@H](C4)N5)nc(OCC45CCCN4CC(F)(F)C5)nc3c2F)c2ccccc2c1 (stereo partly drawn) [Example 20, 4-(4-((1R,5S)-3,6-diazabicyclo[3.1. 1]heptan-3-yl)-2-((2,2-difluorotetrahydro-1H-pyrrolizin-7a(5H)-yl)methoxy)-6,8-difluoroquinazolin-7-yl)naphthalen-2-ol] | 5560 nM | 40 nM | 87 nM | 7280 nM
CCc1c(F)ccc2cc(O)cc(-c3c(F)cc4c(N5C[C@H]6CC[C@@H](C5)N6)nc(OC[C@@]56CCCN5C[C@H](F)C6)nc4c3F)c12 [Example 88, 4-(4-((1R,5S)-3,8-diazabicyclo[3.2. 1]octan-3-yl)-6,8-difluoro-2-(((2R,7aS)-2-fluorotetrahydro-1H-pyrrolizin-7a(5H)-yl)methoxy)quinazolin-7-yl)-5-ethyl-6-fluoronaphthalen-2-ol] | 9 nM | 4 nM | 4 nM | 3 nM
Fc1c(-c2c(C3CC3)ccc3[nH]ncc23)ccc2c(N3C[C@H]4CC[C@@H](C3)N4)nc(OC[C@@]34CCCN3C[C@H](F)C4)nc12 [Example 193, 4-((1R,5S)-3,8-diazabicyclo[3.2.1]octan-3-yl)-7-(5-cyclopropyl-1H-indazol-4-yl)-8-fluoro-2-(((2R,7aS)-2-fluorotetrahydro-1H-pyrrolizin-7a(5H)-yl)methoxy) quinazoline] | 1080 nM | 10 nM | 15 nM | 482 nM
C#Cc1cccc2cc(O)cc(-c3ccc4c(N5[C@@H]6CC[C@H]5CNC6)nc(OC[C@@]56CCCN5C[C@H](F)C6)nc4c3F)c12 [Example 99, 4-(4-((1R,5S)-3,8-Diazabicyclo[3.2.1]octan-8-yl)-8-fluoro-2-(((2R,7aS)-2-fluorotetrahydro-1H-pyrrolizin-7a(5H)-yl)methoxy)quinazolin-7-yl)-5-ethynylnaphthalen-2-ol] | 19 nM | 3 nM | 3 nM | 5 nM
Nc1cc(-c2c(F)cc3c(N4C[C@@H]5CC[C@H]4CN5)nc(OC[C@@]45CCCN4C[C@H](F)C5)nc3c2F)c2ccccc2c1 [Example 117, 4-(4-((1S,4S)-2,5-diazabicyclo[2.2.2]octan-2-yl)-6,8-difluoro-2-(((2R,7aS)-2-fluorotetrahydro-1H-pyrrolizin-7a(5H)-yl)methoxy)quinazolin-7-yl)naphthalen-2-amine] | 899 nM | 7 nM | 13 nM | 411 nM
Oc1cc(-c2c(Cl)cc3c(N4C[C@H]5CC[C@@H](C4)N5)nc(OC[C@@]45CCCN4C[C@H](F)C5)nc3c2F)c2ccccc2c1 [Example 52, 4-(4-((1R,5S)-3,8-diazabicyclo[3.2. 1]octan-3-yl)-6-chloro-8-fluoro-2-(((2R,7aS)-2-fluorotetrahydro-1H-pyrrolizin-7a(5H)-yl)methoxy)quinazolin-7-yl)naphthalen-2-ol] | 107 nM | 3 nM | 3 nM | 41 nM
C#Cc1cccc2cc(O)cc(-c3c(F)cc4c(N5C[C@H]6C[C@@H](C5)N6)nc(OC[C@@]56CCCN5C[C@H](F)C6)nc4c3F)c12 [Example 183, 4-(4-((1R,5S)-3,6-diazabicyclo[3.1.1]heptan-3-yl)-6,8-difluoro-2-(((2R,7aS)-2-fluorotetrahydro-1H-pyrrolizin-7a(5H)-yl)methoxy)quinazolin-7-yl)-5-ethynylnaphthalen-2-ol] | 5400 nM | 4 nM | 2 nM | 1480 nM
